One assay concerns CT-DNA. The experiment in a line: DNA cleavage by agarose gel electrophoresis in presence of H2O2. It counts as biochemical, calf. Particulars: in the presence of H2O2, agarose gel. The source says:
The DNA nuclease characteristics were scrutinized of all substances along with DNA containing H2O2 and Tris-HCl buffer solution with a pH of 7.4 [19]. The gel layer was discarded from the tank solution after the experiment was finished and put in front of a UV transilluminator, and each band lane was also scrutinized with the control (DNA + H2O2).
2.1. Resources and Techniques
We purchased the essential chemical substances and other reagents from Sigma Aldrich repository. Numerous analytical and spectral measurements were utilized to describe all the test compounds, including Bruker 300 MHz 1H NMR spectrometer, or Avance III HD Nanobay 400 MHz, Shimadzu FT-IR spectrometer, Shimadzu UV-Vis 1800, Varian E112 EPR spectrometer, Bruker Daltonics ESI-MS 3000 or Bruker Compact qTOFMS coupled to an LC system and (Varian Inc, USA, 410 proStar binary LC with 500 MS, IT, and PDA detectors, or Thermo Ultimate 3000 with PDA), Bruker AXS KAPPA APEX-2 or D8 ADVANCE diffractometers (SCXRD) and other analytical techniques. The further details were encapsulated in our previous reports.
2.2. DNA/BSA interaction studies
2.2.1. […]
After the completion of the experiment, the gel layer was taken out of the tank solution and exposed to a UV transilluminator. All band lanes were evaluated and compared to the control (DNA+H2O2) using bromophenol blue, […] is useful for visually analyzing the migrated band lanes for the degree of DNA cleavage. […]
By increasing the concentration of DNA (0 –50 μM), electronic absorption titrations were performed at the fixed concentration (50 μM) of all test compounds in aqueous media at room temperature. […] Using the molar extinction coefficient (6600 M −1 cm−1) at 260 nm, it was also possible to measure the DNA concentration per nucleotide and polynucleotide, denoting that the DNA was sufficiently free of protein by the ratio of absorbance at 260 and 280 nm of roughly 1.8 –1.9 [21, 22]. When raising the concentration of DNA in compound solution, up to the point of completely binding, the decrease in absorbance intensity was carefully observed.

In the next assay the target is T1, BSA (Bos taurus, UniProt P02769).
T1 construct: purchased Sigma Aldrich
T1 sequence (P02769 25-607): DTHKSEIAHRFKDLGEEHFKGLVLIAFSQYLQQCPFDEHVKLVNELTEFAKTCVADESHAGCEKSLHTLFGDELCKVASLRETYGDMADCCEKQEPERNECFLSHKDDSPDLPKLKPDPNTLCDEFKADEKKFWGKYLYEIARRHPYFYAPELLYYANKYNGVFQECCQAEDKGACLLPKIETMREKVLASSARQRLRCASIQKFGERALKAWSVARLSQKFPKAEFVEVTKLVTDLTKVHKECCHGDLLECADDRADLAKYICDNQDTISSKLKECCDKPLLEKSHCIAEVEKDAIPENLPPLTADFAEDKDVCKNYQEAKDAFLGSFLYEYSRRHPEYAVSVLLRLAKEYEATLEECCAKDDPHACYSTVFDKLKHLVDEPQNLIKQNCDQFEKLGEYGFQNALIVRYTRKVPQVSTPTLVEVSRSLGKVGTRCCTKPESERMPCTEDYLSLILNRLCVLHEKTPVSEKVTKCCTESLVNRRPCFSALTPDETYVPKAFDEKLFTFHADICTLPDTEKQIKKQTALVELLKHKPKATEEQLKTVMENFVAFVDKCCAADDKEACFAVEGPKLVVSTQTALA
The experiment in a line: BSA binding by UV–vis absorption titration. Particulars: for Δλ (nm) (blue shift of BSA band at 278 nm) / Chromism (% H) (hyperchromism): BSA 25 μM, compound 0–25 μM; for Chromism (% H) (hyperchromism): 278 nm; for Binding Constant Kapp by BH Method: BSA, UV–Vis titration; for ΔGb°: −RT ln Kapp, T = 298 K. The arrangement: species or system bovine. As to the method:
UV–vis spectral titrations were performed with a 25 μM concentration of BSA at room temperature with a 5 mM Tris-HCl/50 mM NaCl buffer solution (pH: 7.4). When the sample concentrations (0–25 μM) increased in the same BSA concentration solution, the alteration in the absorption band at 278 nm was continuously monitored.
2.2.8. UV-Vis absorption titrations for the BSA binding assay
The test compound concentrations (0 –25 μM) were varied during the electronic absorption titrations, which were conducted at a fixed BSA concentration (25 μM) in aqueous media (pH = 7.2) at 25 °C. The property of BSA is also confirmed by the observation of a strong absorption band in the UV region at 278 nm. […] The increment of the test compound causes a gradual increase in the BSA absorption band, which leads to the […]
owing to non-covalent interaction of the test compound with BSA [33].
∆Amax = (A∞ - A0), ∆A = (Ax - A0), A0 , Ax and A∞ are denoted as the absorbance of free BSA, the absorbance of BSA in the increment concentrations of the compound, and the absorbance value of the fully bound form of bovine serum albumin with substance, respectively.

Assay [1] can be described thus: Hydroxyl radical scavenging assay. Type of assay: biochemical. Particulars: 230 nm.
Another assay concerns EB–DNA. The experiment in a line: Ethidium bromide displacement assay by fluorescence spectral titration. Type of assay: binding, calf. Particulars: Kapp=KEB[EB]/[compound], KEB = 10^7 M^−1 at 50 µM EB; compound concentration at 50% reduction of EB fluorescence.

The text below walks through data of article PMC9775322, “An Integrated Analysis of Mechanistic Insights into Biomolecular Interactions and Molecular Dynamics of Bio-Inspired Cu(II) and Zn(II) Complexes towards DNA/BSA/SARS-CoV-2 3CL^pro by Molecular Docking-Based Virtual Screening and FRET Detection” (Biomolecules, 2022).

As a reminder, the IC50 is the midpoint of a concentration-inhibition curve.

`[Cu+2].[O-]c1ccccc1N=Cc1ccc(N2CCOCC2)cc1.[O-]c1ccccc1N=Cc1ccc(N2CCOCC2)cc1.c1cnc2c(c1)ccc1cccnc12` [(1b), [Cu^II(L)2(phen)]]: in the assay with CT-DNA, the “DNA cleavage (chemical nuclease activity)” value (from here on “DNA cleavage”) was “complete DNA cleavage”. The “Δλ (nm) (blue shift of BSA band at 278 nm)” value at BSA was 8 nm. At BSA, the “Chromism (% H) (hyperchromism)” value is reported as 64.70%. The “Binding Constant Kapp by BH Method” value at BSA came out at 35140 M⁻¹. In addition, the “ΔGb°” value on BSA is −25.9330 kJmol^−1. For the same compound, the “% Inhibition, hydroxyl radical” value in assay [1] (40 µM) was determined as 09.94%; in assay [1] (80 µM), 18.86%; in assay [1] (120 µM), 32.85%; in assay [1] (160 µM) it was 39.84%; in assay [1] (200 µM), 51.93%; in assay [1] (240 µM), 62.05%. Besides, the IC50 in assay [1] (read-out: IC50, hydroxyl radical inhibition) was found to be 200 µM. The “Kapp (apparent binding constant)” value with EB–DNA was determined as 1e+07 M⁻¹.
For `[O-]c1ccccc1N=Cc1ccc(N2CCOCC2)cc1.[O-]c1ccccc1N=Cc1ccc(N2CCOCC2)cc1.[Zn+2].c1cnc2c(c1)ccc1cccnc12` [(2b), [Zn^II(L)2(phen)]], in the assay on CT-DNA, the “DNA cleavage” value was “partially cleaves DNA”. In addition, the “Δλ (nm) (blue shift of BSA band at 278 nm)” value on BSA amounted to 8 nm. Further, the “Chromism (% H) (hyperchromism)” value on BSA amounted to 62.16%. For the same compound, at BSA, the “Binding Constant Kapp by BH Method” value stood at 21878 M⁻¹. At BSA, the “ΔGb°” value is recorded as −24.7590 kJmol^−1. In addition, the “% Inhibition, hydroxyl radical” value came to 08.33% in assay [1] (40 µM); 17.12% in assay [1] (80 µM); 27.05% in assay [1] (120 µM); 36.68% in assay [1] (160 µM); 47.03% in assay [1] (200 µM); 57.83% in assay [1] (240 µM). Moreover, the “Kapp (apparent binding constant)” value in the assay on EB–DNA amounted to 4.804e+06 M⁻¹.
Regarding `Oc1ccccc1N=Cc1ccc(N2CCOCC2)cc1` [(HL), 2-(4-morpholinobenzylideneamino)phenol], the “DNA cleavage” value in the assay on CT-DNA was “No discernible DNA cleavage”. In addition, the “Δλ (nm) (blue shift of BSA band at 278 nm)” value at BSA is reported as 2 nm. Further, the “Chromism (% H) (hyperchromism)” value at BSA came to 47.79%. On BSA, the “ΔGb°” value is on record as −22.3387 kJmol^−1. In addition, the “% Inhibition, hydroxyl radical” value in assay [1] (40 µM) was 07.26%; in assay [1] (80 µM), 14.43%; in assay [1] (120 µM), 25.52%; in assay [1] (160 µM), 33.86%; in assay [1] (200 µM) it was 40.73%; in assay [1] (240 µM) it was 50.68%. In addition, in the assay on EB–DNA, the “Kapp (apparent binding constant)” value was 4.2e+06 M⁻¹.
